Assay [1] relates to EA#14.3K42 non-labelled (DNA, aptamer) ATACCAGCTTATTCAATTTGAGGCGGGTGGGTGGGTTGAATA
Kind of assay: dye fluorescence melting profile, qualitative. The following applies: 100 mM NaCl; 20 mM TRIS, 0.02% Tween 20, pH 7.6; 10x dye; 0.5-4 μM aptamer.

Assay [2] relates to EA#14.3K31 non-labelled (DNA, aptamer) ATTCAATTTGAGGCGGGTGGGTGGGTTGAAT
Kind of assay: dye fluorescence melting profile, qualitative. The settings on record: 100 mM NaCl; 20 mM TRIS, 0.02% Tween 20, pH 7.6; 10x dye; 0.5-4 μM aptamer.

Molecules are shown by their SMILES.

As for `CCCN(CCCN(C)C)c1cc(C=C2Sc3ccccc3N2C)c2ccccc2[n+]1-c1ccccc1`, the binding entry in assay [1] and in assay [2] was “yes” in each case.

Values taken from paper PMC6506705 (2019).
